In one data set the test system is NTAQ1. Kind of data set: Western blot verification of NTAQ1 degradation. The settings on record: 100 nM MLN4924 pre-treatment for 2 hours. For orientation: In western blotting, separated proteins are transferred to a membrane and probed.
For data set [1] the following is noted: cited from earlier work.

Take `NS(=O)(=O)OC[C@@H]1C[C@@H](n2ccc3c(N[C@H]4CCc5ccccc54)ncnc32)C[C@@H]1O` [MLN4924]: in the data set on NTAQ1, the “effect of pre-treatment on NTAQ1 downregulation by EM12-FS” value was “rescued downregulation of NTAQ1 by EM12-FS”. Take `Nc1cccc2c1CN(C1CCC(=O)NC1=O)C2=O` (stereo not shown) [lenalidomide]: the human plasma half-life in data set [1] is 4.73 h. Consider `Nc1cccc2c1C(=O)N(C1CCC(=O)NC1=O)C2=O` (stereo not shown) [pomalidomide], for which, in data set [1], the human plasma half-life is 2.65 h. Consider `O=C1CCC(N2C(=O)c3ccccc3C2=O)C(=O)N1` (stereo not shown) [thalidomide], for which the human plasma half-life in data set [1] is 0.367 h.

The record behind these values is publication PMC9428674 (RSC Chemical Biology, 2022).
